Target: Intestinal-type alkaline phosphatase (Homo sapiens, UniProt P09923)
Experiment: inhibition of human intestinal alkaline phosphatase – biochemical, dose response (AID 488876)

Chain of Intestinal-type alkaline phosphatase (P09923 whole entry): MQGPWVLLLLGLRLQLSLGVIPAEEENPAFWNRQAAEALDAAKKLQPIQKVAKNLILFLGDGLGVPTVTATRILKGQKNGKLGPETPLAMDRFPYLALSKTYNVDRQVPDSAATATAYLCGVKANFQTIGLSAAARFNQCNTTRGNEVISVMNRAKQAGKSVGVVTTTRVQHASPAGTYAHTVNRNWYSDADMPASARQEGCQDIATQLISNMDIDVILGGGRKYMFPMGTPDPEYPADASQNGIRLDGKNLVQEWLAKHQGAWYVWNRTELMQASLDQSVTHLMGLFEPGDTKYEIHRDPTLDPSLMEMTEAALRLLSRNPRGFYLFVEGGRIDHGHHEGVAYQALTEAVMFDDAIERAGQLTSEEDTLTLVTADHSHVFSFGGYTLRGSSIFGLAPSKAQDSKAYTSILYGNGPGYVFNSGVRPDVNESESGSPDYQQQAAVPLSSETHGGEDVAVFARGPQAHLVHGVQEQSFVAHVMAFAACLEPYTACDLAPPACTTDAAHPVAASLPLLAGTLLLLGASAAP

| Structure (SMILES) | IC50 [µM] |
| --- | --- |
| NS(=O)(=O)c1cc(C(=O)NNC2=c3ccccc3=NC2=O)ccc1Cl [2-chloro-5-[[(2-oxoindol-3-yl)amino]carbamoyl]benzenesulfonamide] | > 100 |
| O=C(Nn1c(O)csc1=S)C(=O)Nn1c(O)csc1=S [SMR000349781] | > 100 |
| C#CCOCCOCCOCCNc1nc(N2CCN(C(=O)CCCCCCCCCCNC(=O)Cn3cc(CCCCCN)nn3)CC2)nc(N2CCN(C(=O)CCCCCCCCCCNC(=O)Cn3cc(C[C@@H](C)O)nn3)CC2)n1 [KG-TG] | > 100 |
| O=C1C=CC(C=NNC(=S)Nc2ccccc2[N+](=O)[O-])C=C1O (centres undefined) [MLS000417596] | > 100 |
| Cc1ccc(Cl)c2c1NC(=O)/C2=C1/NC(=S)NC1=O | > 100 |
| Oc1ccc(C=Nn2c(O)csc2=S)c(O)c1O [3-[[(E)-[2,3-bis(oxidanyl)-4-oxidanylidene-cyclohexa-2,5-dien-1-ylidene]methyl]amino]-2-sulfanylidene-1,3-thiazolidin-4-one] | > 100 |
| COc1cc(C=CC(=O)CC(=O)C=Cc2ccc(O)cc2)ccc1O [demethoxycurcumin] | > 100 |
| C#CCOCCOCCOCCNc1nc(N2CCN(C(=O)CCCCCCCCCCNC(=O)[C@H]([C@@H](C)CC)n3cc(CCCCN=C(N)N)nn3)CC2)nc(N2CCN(C(=O)CCCCCCCCCCNC(=O)[C@@H]([C@H](C)O)n3cc(C)nn3)CC2)n1 [GT-RI] | 86.3 |
| Nc1nnc(CC(=O)N/N=C/C2C=C([N+](=O)[O-])C=C(Br)C2=O)s1 (centres undefined) [2-(5-azanyl-1,3,4-thiadiazol-2-yl)-N'-[(E)-(5-bromanyl-3-nitro-6-oxidanylidene-cyclohexa-2,4-dien-1-ylidene)methyl]ethanehydrazide] | > 100 |

Now those with a lower IC50, led by results:

| IC50 [µM] | Structure (SMILES) |
| --- | --- |
| 21.3 | COc1cc(C=Nn2c(O)csc2=S)ccc1O [3-[[(E)-(3-methoxy-4-oxidanylidene-cyclohexa-2,5-dien-1-ylidene)methyl]amino]-2-sulfanylidene-1,3-thiazolidin-4-one] |
| 14 | CC1NON=C1C(=O)NN=CC1=CC(=O)C(=O)C=C1 (centres undefined) [4-Methyl-furazan-3-carboxylic acid (3,4-dihydroxy-benzylidene)-hydrazide] |
| 4.34 | O=C1C=CC(/C=C/c2nc(O)c([N+](=O)[O-])c(=O)[nH]2)C=C1O (centres undefined) [SMR000524347] |
| 80 | Cc1ccc(/C=C2\SC(=S)N(/N=C/C3C=C([N+](=O)[O-])C=CC3=O)C2=O)o1 (centres undefined) [(5Z)-5-[(5-methylfuran-2-yl)methylidene]-3-[[(E)-(3-nitro-6-oxocyclohexa-2,4-dien-1-ylidene)methyl]amino]-2-sulfanylidene-1,3-thiazolidin-4-one] |
| 14.3 | C#CCOCCOCCOCCNc1nc(N2CCN(C(=O)CCCCCCCCCCNC(=O)[C@@H](CCSC)n3cc(CCO)nn3)CC2)nc(N2CCN(C(=O)CCCCCCCCCCNC(=O)[C@H]([C@@H](C)CC)n3cc(CCCCCN)nn3)CC2)n1 [MLS002153719] |

From BindingDB's records for doi:10.7270/Q2X63KDM (Burnham Center For Chemical Genomics, 2010)
